Assay results from ChEMBL document CHEMBL1130830, “Broad spectrum matrix metalloproteinase inhibitors: an examination of succinamide hydroxamate inhibitors with P1 C alpha gem-disubstitution” (Bioorg Med Chem Lett, 1998).

How the values were obtained:
Stromelysin-1 = Stromelysin-1 (Homo sapiens, UniProt P08254); test: Inhibition of Matrix metalloprotease-3 (MMP-3)
[1] = molecular target: 72 kDa type IV collagenase (Homo sapiens, UniProt P08253); test: Inhibition of Matrix metalloprotease-2 (MMP-2)
Interstitial collagenase = molecular target: T1, Interstitial collagenase (Homo sapiens, UniProt P03956); test: Inhibition of matrix metalloprotease-1 (MMP-1)
T1 sequence (P03956 whole entry): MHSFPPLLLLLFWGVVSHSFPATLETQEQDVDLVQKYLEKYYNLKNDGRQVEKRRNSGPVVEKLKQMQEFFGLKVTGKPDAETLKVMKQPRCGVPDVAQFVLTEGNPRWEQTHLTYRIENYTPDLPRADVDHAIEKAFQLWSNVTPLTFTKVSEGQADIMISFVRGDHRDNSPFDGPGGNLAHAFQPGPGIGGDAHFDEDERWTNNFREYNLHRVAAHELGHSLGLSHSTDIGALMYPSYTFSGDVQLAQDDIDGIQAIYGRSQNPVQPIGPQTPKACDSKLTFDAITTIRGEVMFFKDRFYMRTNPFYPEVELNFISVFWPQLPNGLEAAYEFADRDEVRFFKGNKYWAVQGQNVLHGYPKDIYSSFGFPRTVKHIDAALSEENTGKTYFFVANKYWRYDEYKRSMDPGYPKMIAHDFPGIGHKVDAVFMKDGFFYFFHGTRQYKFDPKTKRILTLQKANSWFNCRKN

Sequence of 72 kDa type IV collagenase (P08253 whole entry): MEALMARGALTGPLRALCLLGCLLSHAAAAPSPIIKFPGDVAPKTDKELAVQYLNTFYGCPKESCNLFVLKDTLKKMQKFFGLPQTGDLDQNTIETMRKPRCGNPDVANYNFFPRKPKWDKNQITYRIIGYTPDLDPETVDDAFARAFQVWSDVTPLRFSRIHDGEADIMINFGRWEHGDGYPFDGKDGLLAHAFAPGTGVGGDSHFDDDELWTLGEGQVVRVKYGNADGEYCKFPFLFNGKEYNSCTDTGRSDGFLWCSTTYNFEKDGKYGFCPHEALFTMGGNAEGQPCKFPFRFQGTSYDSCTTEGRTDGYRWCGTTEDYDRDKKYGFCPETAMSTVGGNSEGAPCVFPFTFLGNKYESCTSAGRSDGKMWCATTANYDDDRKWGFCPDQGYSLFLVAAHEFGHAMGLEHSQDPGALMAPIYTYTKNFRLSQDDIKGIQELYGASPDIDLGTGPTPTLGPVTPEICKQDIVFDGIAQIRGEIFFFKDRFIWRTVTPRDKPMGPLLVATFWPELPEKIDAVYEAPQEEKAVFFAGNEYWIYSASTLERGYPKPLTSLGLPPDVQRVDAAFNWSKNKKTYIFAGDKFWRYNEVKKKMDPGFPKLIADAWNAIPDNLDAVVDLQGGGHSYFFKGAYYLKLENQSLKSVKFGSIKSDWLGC
Sequence of Stromelysin-1 (P08254 whole entry): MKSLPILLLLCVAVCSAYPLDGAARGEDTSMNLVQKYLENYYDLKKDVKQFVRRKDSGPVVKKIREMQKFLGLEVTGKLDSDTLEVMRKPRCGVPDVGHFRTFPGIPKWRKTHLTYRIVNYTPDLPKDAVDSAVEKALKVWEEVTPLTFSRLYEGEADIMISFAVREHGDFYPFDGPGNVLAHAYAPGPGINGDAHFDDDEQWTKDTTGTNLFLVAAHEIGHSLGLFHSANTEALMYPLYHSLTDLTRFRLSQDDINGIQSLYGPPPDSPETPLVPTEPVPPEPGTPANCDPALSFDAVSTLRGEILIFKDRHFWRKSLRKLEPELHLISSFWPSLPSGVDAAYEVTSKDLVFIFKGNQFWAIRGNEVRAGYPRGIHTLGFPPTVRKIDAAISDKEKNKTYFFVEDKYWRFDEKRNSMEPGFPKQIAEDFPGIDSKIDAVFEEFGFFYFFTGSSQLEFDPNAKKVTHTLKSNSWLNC

IC50 (Stromelysin-1) [µM] | IC50 [1] [µM] | IC50 (Interstitial collagenase) [µM] | Structure (SMILES)
2.6 | 0.11 | 0.55 | C=CCC(CC=C)(C(=O)NO)[C@@H](CC(C)C)C(=O)N[C@@H](Cc1ccccc1)C(=O)NC
0.17 | 0.05 | 0.037 | CNC(=O)[C@H](Cc1ccccc1)NC(=O)[C@H](CC(C)C)C1(C(=O)NO)CCCC1
0.16 | 0.064 | 0.11 | C=CC[C@](C)(C(=O)NO)[C@@H](CC(C)C)C(=O)N[C@@H](CC1CCCCC1)C(=O)NCCc1ccccc1
0.015 | 0.023 | 0.0069 | C=CC[C@](C)(C(=O)NO)[C@@H](CC(C)C)C(=O)N[C@@H](CC1CCCCC1)C(=O)NCCc1ccc(S(N)(=O)=O)cc1
0.42 | 0.066 | 0.052 | C=CC[C@@](C)(C(=O)NO)[C@@H](CC(C)C)C(=O)N[C@@H](Cc1ccccc1)C(=O)NC
0.095 | 0.0062 | 0.05 | C=CC[C@](C)(C(=O)NO)[C@@H](CC(C)C)C(=O)N[C@H](C(=O)Nc1ccccc1)C(C)(C)C
0.05 | 0.0013 | 0.0013 | CNC(=O)[C@H](Cc1ccccc1)NC(=O)[C@H](CC(C)C)[C@H](C)C(=O)NO
0.17 | 0.0023 | 0.0094 | CNC(=O)[C@H](Cc1ccccc1)NC(=O)[C@H](CC(C)C)C(C)(C)C(=O)NO
0.48 | 0.0025 | 0.0027 | C=CC[C@](C)(C(=O)NO)[C@@H](CC(C)C)C(=O)N[C@H](C(=O)NC)C(C)(C)C
0.091 | 0.052 | 0.12 | C=CC[C@](C)(C(=O)NO)[C@@H](CC(C)C)C(=O)N[C@@H](Cc1ccccc1)C(=O)Nc1ccccc1
0.025 | 0.0042 | 0.0031 | C=CC[C@](C)(C(=O)NO)[C@@H](CC(C)C)C(=O)N[C@@H](Cc1ccccc1)C(=O)NC
0.059 | 0.035 | 0.035 | C=CC[C@@H](C(=O)NO)[C@@H](CC(C)C)C(=O)N[C@@H](Cc1ccccc1)C(=O)NC
0.012 | 0.0018 | 0.0022 | C=CCC(C(=O)NO)C(CC(C)C)C(=O)N[C@@H](Cc1ccccc1)C(=O)NC (single isomer, unassigned)
